Measured values published in patent publication US8158636B2, “Compounds and methods for kinase modulation, and indications therefor” (Plexxikon Inc., priority 2008, dated 2012).

What was measured:
Assay type in all cases: biochemical
Kdr = Kdr (Homo sapiens, UniProt P35968); test: Kinase activity assay, Kdr; details: Table 1i; read-out: activity toward kinase Kdr, IC50
Excerpt: (§1) Assays for the activity of kinases, including, but not limited to, Fms, Kit, B-Raf, B-Raf V600E, c-Raf-1, and TrkA are known in the art, for example as described in US Patent Publication Number US20070032519 and U.S. patent application Ser. No. 11/473,347 (see also, PCT publication WO2007002433), the disclosures of which are hereby incorporated by reference with respect to such assays.

B-Raf V600E = B-Raf V600E (Homo sapiens, UniProt P15056, V600E); test: Kinase activity assay, B-Raf V600E; details: Table 1c; read-out: activity toward kinase B-Raf V600E, IC50
Excerpt: as §1

Fms = Fms (Homo sapiens, UniProt P07333); test: Kinase activity assay, Fms; details: Table 1h; read-out: activity toward kinase Fms, IC50
Excerpt: as §1

Kit = Kit (Homo sapiens, UniProt P10721); test: Kinase activity assay, Kit; details: Table 1j; read-out: activity toward kinase Kit, IC50
Excerpt: as §1

TrkA = TrkA (Homo sapiens, UniProt P04629); test: Kinase activity assay, TrkA; details: Table 1m; read-out: activity toward kinase TrkA, IC50
Excerpt: as §1

Measured: IC50

Chain of B-Raf V600E (P15056 whole entry V600E): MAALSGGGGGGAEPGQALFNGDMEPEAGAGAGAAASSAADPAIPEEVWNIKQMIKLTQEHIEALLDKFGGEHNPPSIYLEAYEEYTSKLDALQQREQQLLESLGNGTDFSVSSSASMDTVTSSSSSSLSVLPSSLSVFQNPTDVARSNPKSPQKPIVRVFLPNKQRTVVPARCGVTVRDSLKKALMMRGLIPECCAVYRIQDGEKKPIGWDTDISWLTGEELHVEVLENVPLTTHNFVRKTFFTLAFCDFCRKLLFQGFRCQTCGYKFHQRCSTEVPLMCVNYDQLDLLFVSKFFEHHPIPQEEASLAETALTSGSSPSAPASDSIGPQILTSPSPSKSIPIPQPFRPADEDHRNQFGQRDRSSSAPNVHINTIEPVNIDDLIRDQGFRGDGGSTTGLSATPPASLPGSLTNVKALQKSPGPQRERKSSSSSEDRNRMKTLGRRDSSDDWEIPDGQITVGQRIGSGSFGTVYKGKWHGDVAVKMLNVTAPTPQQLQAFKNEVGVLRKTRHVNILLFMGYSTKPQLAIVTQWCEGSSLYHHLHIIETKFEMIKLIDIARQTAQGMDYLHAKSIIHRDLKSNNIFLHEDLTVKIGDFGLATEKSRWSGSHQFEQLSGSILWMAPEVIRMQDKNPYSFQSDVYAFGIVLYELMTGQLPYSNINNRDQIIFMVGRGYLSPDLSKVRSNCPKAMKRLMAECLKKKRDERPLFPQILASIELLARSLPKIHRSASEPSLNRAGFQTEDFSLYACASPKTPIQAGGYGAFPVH
Chain of Fms (P07333 20-972): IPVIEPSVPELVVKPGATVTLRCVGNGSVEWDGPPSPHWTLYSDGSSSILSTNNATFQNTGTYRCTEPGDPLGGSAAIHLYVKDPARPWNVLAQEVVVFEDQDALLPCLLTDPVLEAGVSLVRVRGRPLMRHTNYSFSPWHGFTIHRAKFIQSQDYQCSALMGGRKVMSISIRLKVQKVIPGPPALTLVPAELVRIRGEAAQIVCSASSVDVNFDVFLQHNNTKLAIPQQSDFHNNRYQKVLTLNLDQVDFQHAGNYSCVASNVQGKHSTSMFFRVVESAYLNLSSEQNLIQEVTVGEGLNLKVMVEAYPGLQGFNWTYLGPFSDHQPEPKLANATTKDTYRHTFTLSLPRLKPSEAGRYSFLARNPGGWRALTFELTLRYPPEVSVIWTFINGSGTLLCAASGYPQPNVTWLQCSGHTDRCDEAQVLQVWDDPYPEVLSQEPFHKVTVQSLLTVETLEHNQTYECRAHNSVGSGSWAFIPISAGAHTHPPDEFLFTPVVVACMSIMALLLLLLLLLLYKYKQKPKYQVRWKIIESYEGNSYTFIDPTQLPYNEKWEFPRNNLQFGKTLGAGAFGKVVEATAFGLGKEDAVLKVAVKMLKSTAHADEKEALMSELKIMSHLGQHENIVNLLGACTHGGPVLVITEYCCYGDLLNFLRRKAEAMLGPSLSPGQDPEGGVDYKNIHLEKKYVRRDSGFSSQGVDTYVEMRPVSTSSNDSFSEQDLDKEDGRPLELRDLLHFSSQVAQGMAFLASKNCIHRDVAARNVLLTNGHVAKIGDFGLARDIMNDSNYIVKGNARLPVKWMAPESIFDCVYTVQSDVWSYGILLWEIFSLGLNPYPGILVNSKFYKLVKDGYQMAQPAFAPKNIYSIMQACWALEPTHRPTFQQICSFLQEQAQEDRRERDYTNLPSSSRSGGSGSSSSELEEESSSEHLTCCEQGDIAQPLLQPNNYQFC
Chain of TrkA (P04629 33-796): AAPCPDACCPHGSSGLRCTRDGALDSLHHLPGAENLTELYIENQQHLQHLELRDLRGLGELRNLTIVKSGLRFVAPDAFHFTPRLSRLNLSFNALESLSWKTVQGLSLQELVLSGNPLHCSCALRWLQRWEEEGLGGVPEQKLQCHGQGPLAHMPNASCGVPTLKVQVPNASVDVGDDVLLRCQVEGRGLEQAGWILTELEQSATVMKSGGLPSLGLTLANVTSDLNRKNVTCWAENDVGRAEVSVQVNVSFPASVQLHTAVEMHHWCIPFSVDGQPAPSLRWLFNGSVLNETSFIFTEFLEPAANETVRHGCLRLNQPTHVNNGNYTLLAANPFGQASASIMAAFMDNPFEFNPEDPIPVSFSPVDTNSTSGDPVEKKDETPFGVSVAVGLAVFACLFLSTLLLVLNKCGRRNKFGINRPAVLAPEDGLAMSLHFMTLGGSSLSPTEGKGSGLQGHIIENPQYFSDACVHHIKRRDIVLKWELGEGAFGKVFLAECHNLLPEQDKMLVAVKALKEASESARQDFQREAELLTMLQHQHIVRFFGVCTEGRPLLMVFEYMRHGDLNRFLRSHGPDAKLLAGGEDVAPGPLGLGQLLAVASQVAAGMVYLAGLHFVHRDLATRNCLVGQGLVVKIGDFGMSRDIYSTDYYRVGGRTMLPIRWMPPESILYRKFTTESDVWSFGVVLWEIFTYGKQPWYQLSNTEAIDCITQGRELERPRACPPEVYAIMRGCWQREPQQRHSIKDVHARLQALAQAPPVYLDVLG
Chain of Kit (P10721 26-976): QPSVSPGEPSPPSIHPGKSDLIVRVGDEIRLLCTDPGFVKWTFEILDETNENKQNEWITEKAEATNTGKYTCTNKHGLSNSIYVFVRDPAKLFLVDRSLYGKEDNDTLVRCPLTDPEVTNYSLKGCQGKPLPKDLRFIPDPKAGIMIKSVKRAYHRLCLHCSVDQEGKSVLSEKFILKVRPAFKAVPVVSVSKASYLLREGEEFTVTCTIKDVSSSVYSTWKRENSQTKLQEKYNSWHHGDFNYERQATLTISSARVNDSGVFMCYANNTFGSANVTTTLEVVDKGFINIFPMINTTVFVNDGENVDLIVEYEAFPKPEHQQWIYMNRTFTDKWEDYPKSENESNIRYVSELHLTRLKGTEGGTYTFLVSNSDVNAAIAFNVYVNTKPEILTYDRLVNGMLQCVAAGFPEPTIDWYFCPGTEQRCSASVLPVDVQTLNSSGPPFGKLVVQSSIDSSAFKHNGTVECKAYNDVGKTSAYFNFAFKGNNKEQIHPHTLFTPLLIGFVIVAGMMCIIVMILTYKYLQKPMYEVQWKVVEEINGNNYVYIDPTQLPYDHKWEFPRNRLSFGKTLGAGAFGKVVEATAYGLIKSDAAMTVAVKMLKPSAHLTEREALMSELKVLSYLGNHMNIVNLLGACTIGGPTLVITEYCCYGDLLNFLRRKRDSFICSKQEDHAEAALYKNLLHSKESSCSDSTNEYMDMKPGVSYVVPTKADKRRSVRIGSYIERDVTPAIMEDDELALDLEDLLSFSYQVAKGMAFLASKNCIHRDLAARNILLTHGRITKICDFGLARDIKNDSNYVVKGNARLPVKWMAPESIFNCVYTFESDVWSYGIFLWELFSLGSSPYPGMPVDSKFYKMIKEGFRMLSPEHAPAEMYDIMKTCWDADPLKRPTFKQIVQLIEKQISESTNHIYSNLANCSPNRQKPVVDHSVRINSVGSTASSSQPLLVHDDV
Chain of Kdr (P35968 20-1356): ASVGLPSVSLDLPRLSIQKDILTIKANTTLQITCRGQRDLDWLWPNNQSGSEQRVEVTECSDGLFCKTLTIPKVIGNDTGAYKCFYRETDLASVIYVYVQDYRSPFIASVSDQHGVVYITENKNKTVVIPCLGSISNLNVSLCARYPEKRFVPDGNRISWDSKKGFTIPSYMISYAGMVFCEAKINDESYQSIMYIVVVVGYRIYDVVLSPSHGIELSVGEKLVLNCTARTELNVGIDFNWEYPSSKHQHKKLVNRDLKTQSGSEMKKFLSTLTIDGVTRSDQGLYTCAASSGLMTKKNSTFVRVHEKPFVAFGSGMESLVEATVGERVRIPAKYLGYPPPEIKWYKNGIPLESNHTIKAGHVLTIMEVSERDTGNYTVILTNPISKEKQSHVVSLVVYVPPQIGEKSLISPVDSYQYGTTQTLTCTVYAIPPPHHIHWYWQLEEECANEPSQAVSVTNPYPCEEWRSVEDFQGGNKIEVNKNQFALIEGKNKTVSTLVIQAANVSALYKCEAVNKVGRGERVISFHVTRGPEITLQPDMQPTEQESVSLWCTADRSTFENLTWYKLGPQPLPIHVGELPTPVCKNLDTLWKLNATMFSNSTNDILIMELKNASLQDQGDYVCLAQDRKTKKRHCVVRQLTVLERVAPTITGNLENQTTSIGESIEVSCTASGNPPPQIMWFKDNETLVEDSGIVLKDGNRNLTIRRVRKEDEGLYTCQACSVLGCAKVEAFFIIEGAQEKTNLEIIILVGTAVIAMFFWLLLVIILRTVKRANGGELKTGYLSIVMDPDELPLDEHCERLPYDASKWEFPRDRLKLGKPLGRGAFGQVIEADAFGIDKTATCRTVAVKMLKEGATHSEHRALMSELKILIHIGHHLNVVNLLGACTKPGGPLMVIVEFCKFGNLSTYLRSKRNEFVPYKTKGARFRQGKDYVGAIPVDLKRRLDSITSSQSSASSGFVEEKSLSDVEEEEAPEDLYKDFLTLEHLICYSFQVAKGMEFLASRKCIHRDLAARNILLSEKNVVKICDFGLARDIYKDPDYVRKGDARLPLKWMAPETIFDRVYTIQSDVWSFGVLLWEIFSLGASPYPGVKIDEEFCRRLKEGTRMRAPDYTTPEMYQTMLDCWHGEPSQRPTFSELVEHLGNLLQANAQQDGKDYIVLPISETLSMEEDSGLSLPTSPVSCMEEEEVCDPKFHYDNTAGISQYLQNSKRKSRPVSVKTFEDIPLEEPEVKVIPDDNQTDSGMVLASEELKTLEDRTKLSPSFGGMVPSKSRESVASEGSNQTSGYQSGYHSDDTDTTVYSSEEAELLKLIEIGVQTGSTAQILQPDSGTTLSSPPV

C[C@H](Nc1ccc(Cc2c[nH]c3ncncc23)c(F)n1)c1ccc(F)cc1 [P-0016, [(S)-1-(4-Fluoro-phenyl)-ethyl]-[6-fluoro-5-(7H-pyrrolo[2,3-d]pyrimidin-5-ylmethyl)-pyridin-2-yl]-amine]
not listed: TrkA
≤ 10 µM: all other assays above

COc1cc(CNc2ccc(Cc3c[nH]c4ncncc34)c(F)n2)c(F)cn1 [P-0021, (5-Fluoro-2-methoxy-pyridin-4-ylmethyl)-[6-fluoro-5-(7H-pyrrolo[2,3-d]pyrimidin-5-ylmethyl)-pyridin-2-yl]-amine]
≤ 10 µM: Kdr | B-Raf V600E | Fms

COc1ncc(F)cc1CNc1ncc(Cc2c[nH]c3ncncc23)cn1 [P-0022, (5-Fluoro-2-methoxy-pyridin-3-ylmethyl)-[5-(7H-pyrrolo[2,3-d]pyrimidin-5-ylmethyl)-pyrimidin-2-yl]-amine]
not listed: TrkA
≤ 10 µM: all other assays above

COc1ncc(CNc2ncc(Cc3c[nH]c4ncncc34)cn2)cc1F [P-0024, (5-Fluoro-6-methoxy-pyridin-3-ylmethyl)-[5-(7H-pyrrolo[2,3-d]pyrimidin-5-ylmethyl)-pyrimidin-2-yl]-amine]
not listed: B-Raf V600E
≤ 10 µM: all other assays above

COc1cc(CNc2ccc(Cc3c[nH]c4ncncc34)c(F)n2)cc(OC)c1OC [P-0037, [6-Fluoro-5-(7H-pyrrolo[2,3-d]pyrimidin-5-ylmethyl)-pyridin-2-yl]-(3,4,5-trimethoxy-benzyl)-amine]
≤ 10 µM: Kdr | B-Raf V600E | Fms

COc1ccc(OC)c(CNc2ccc(Cc3c[nH]c4ncncc34)c(F)n2)c1 [P-0038, (2,5-Dimethoxy-benzyl)-[6-fluoro-5-(7H-pyrrolo[2,3-d]pyrimidin-5-ylmethyl)-pyridin-2-yl]-amine]
≤ 10 µM: B-Raf V600E | Fms | Kit

COc1cncc(CNc2ccc(Cc3c[nH]c4ncncc34)c(F)n2)c1 [P-0040, [6-Fluoro-5-(7H-pyrrolo[2,3-d]pyrimidin-5-ylmethyl)-pyridin-2-yl]-(5-methoxy-pyridin-3-ylmethyl)-amine]
≤ 10 µM: B-Raf V600E | Fms

Fc1nc(NCc2ccc(Cl)nc2)ccc1Cc1c[nH]c2ncncc12 [P-0045, (6-Chloro-pyridin-3-ylmethyl)-[6-fluoro-5-(7H-pyrrolo[2,3-d]pyrimidin-5-ylmethyl)-pyridin-2-yl]-amine]
not listed: TrkA
≤ 10 µM: all other assays above

Fc1cncc(CNc2ccc(Cc3c[nH]c4ncncc34)c(F)n2)c1 [P-0050, (5-Fluoro-pyridin-3-ylmethyl)-[6-fluoro-5-(7H-pyrrolo[2,3-d]pyrimidin-5-ylmethyl)-pyridin-2-yl]-amine]
≤ 10 µM: B-Raf V600E | Fms

Fc1nc(NCc2ccc(Br)cn2)ccc1Cc1c[nH]c2ncncc12 [P-0053, (5-Bromo-pyridin-2-ylmethyl)-[6-fluoro-5-(7H-pyrrolo[2,3-d]pyrimidin-5-ylmethyl)-pyridin-2-yl]-amine]
not listed: TrkA
≤ 10 µM: all other assays above

Fc1nc(NCc2cc(C(F)(F)F)cc(C(F)(F)F)c2)ccc1Cc1c[nH]c2ncncc12 [P-0054, (3,5-Bis-trifluoromethyl-benzyl)-[6-fluoro-5-(7H-pyrrolo[2,3-d]pyrimidin-5-ylmethyl)-pyridin-2-yl]-amine]
not listed: B-Raf V600E
≤ 10 µM: all other assays above

CS(=O)(=O)c1cc(Cl)ccc1CNc1ccc(Cc2c[nH]c3ncncc23)c(F)n1 [P-0060, (4-Chloro-2-methanesulfonyl-benzyl)-[6-fluoro-5-(7H-pyrrolo[2,3-d]pyrimidin-5-ylmethyl)-pyridin-2-yl]-amine]
≤ 10 µM: Kdr | B-Raf V600E | Fms

CN(C)c1ccccc1CNc1ccc(Cc2c[nH]c3ncncc23)c(F)n1 [P-0061, (2-Dimethylamino-benzyl)-[6-fluoro-5-(7H-pyrrolo[2,3-d]pyrimidin-5-ylmethyl)-pyridin-2-yl]-amine]
not listed: B-Raf V600E
≤ 10 µM: all other assays above

Cc1ccc(CNc2ccc(Cc3c[nH]c4ncncc34)c(F)n2)nc1 [P-0062, [6-Fluoro-5-(7H-pyrrolo[2,3-d]pyrimidin-5-ylmethyl)-pyridin-2-yl]-(5-methyl-pyridin-2-ylmethyl)-amine]
not listed: TrkA
≤ 10 µM: all other assays above

Cc1cc(F)cc(CNc2ccc(Cc3c[nH]c4ncncc34)c(F)n2)c1 [P-0064, (3-Fluoro-5-methyl-benzyl)-[6-fluoro-5-(7H-pyrrolo[2,3-d]pyrimidin-5-ylmethyl)-pyridin-2-yl]-amine]
not listed: B-Raf V600E
≤ 10 µM: all other assays above

COc1cc(CNc2ccc(Cc3c[nH]c4ncncc34)c(F)n2)cc(OC)c1 [P-0065, (3,5-Dimethoxy-benzyl)-[6-fluoro-5-(7H-pyrrolo[2,3-d]pyrimidin-5-ylmethyl)-pyridin-2-yl]-amine]
≤ 10 µM: Kdr | TrkA | Fms

CCOc1ncccc1CNc1ccc(Cc2c[nH]c3ncncc23)c(F)n1 [P-0069, (2-Ethoxy-pyridin-3-ylmethyl)-[6-fluoro-5-(7H-pyrrolo[2,3-d]pyrimidin-5-ylmethyl)-pyridin-2-yl]-amine]
not listed: B-Raf V600E
≤ 10 µM: all other assays above

Fc1nc(NCc2cccnc2C(F)(F)F)ccc1Cc1c[nH]c2ncncc12 [P-0071, [6-Fluoro-5-(7H-pyrrolo[2,3-d]pyrimidin-5-ylmethyl)-pyridin-2-yl]-(2-trifluoromethyl-pyridin-3-ylmethyl)-amine]
≤ 10 µM: Kdr | TrkA | Fms

Fc1cnc(Cl)cc1CNc1ccc(Cc2c[nH]c3ncncc23)c(F)n1 [P-0072, (2-Chloro-5-fluoro-pyridin-4-ylmethyl)-[6-fluoro-5-(7H-pyrrolo[2,3-d]pyrimidin-5-ylmethyl)-pyridin-2-yl]-amine]
≤ 10 µM: Kdr | B-Raf V600E | Fms

N#Cc1cc(CNc2ccc(Cc3c[nH]c4ncncc34)c(F)n2)ccn1 [P-0073, 4-{[6-Fluoro-5-(7H-pyrrolo[2,3-d]pyrimidin-5-ylmethyl)-pyridin-2-ylamino]-methyl}-pyridine-2-carbonitrile]
≤ 10 µM: Kdr | B-Raf V600E | Fms

Fc1nc(NCc2ccnc(C(F)(F)F)c2)ccc1Cc1c[nH]c2ncncc12 [P-0075, [6-Fluoro-5-(7H-pyrrolo[2,3-d]pyrimidin-5-ylmethyl)-pyridin-2-yl]-(2-trifluoromethyl-pyridin-4-ylmethyl)-amine]
≤ 10 µM: Kdr | TrkA | Fms

Fc1nc(NCc2ccnc(Cl)c2)ccc1Cc1c[nH]c2ncncc12 [P-0076, (2-Chloro-pyridin-4-ylmethyl)-[6-fluoro-5-(7H-pyrrolo[2,3-d]pyrimidin-5-ylmethyl)-pyridin-2-yl]-amine]
≤ 10 µM: Kdr | B-Raf V600E | Fms

Fc1ncc(Cl)cc1CNc1ccc(Cc2c[nH]c3ncncc23)c(F)n1 [P-0077, (5-Chloro-2-fluoro-pyridin-3-ylmethyl)-[6-fluoro-5-(7H-pyrrolo[2,3-d]pyrimidin-5-ylmethyl)-pyridin-2-yl]-amine]
≤ 10 µM: B-Raf V600E | Fms

CCc1ncc(CNc2ccc(Cc3c[nH]c4ncncc34)c(F)n2)cn1 [P-0078, (2-Ethyl-pyrimidin-5-ylmethyl)-[6-fluoro-5-(7H-pyrrolo[2,3-d]pyrimidin-5-ylmethyl)-pyridin-2-yl]-amine]
≤ 10 µM: Kdr | B-Raf V600E | Fms

CCCCc1ncc(CNc2ccc(Cc3c[nH]c4ncncc34)c(F)n2)cn1 [P-0081, (2-Butyl-pyrimidin-5-ylmethyl)-[6-fluoro-5-(7H-pyrrolo[2,3-d]pyrimidin-5-ylmethyl)-pyridin-2-yl]-amine]
≤ 10 µM: Kdr | B-Raf V600E | Fms

COc1cc(CNc2ccc(Cc3c[nH]c4ncncc34)c(F)n2)cc(C(F)(F)F)c1 [P-0082, [6-Fluoro-5-(7H-pyrrolo[2,3-d]pyrimidin-5-ylmethyl)-pyridin-2-yl]-(3-methoxy-5-trifluoromethyl-benzyl)-amine]
not listed: B-Raf V600E
≤ 10 µM: all other assays above

CCOc1ncccc1CNc1ncc(Cc2c[nH]c3ncncc23)cn1 [P-0085, (2-Ethoxy-pyridin-3-ylmethyl)-[5-(7H-pyrrolo[2,3-d]pyrimidin-5-ylmethyl)-pyrimidin-2-yl]-amine]
≤ 10 µM: Kdr | Fms | Kit

c1cc(CNc2ncc(Cc3c[nH]c4ncncc34)cn2)cc(OC2CCCC2)n1 [P-0087, (2-Cyclopentyloxy-pyridin-4-ylmethyl)-[5-(7H-pyrrolo[2,3-d]pyrimidin-5-ylmethyl)-pyrimidin-2-yl]-amine]
≤ 10 µM: Kdr | Fms | Kit

COc1ncc(F)cc1CNc1ccc(Cc2c[nH]c3ncnc(O)c23)cn1 [P-0099, 5-{6-[(5-Fluoro-2-methoxy-pyridin-3-ylmethyl)-amino]-pyridin-3-ylmethyl}-7H-pyrrolo[2,3-d]pyrimidin-4-ol]
≤ 10 µM: TrkA | Fms | Kit
